The assay deals with HCT116. As to the kind of experiment: efficacy (fitted maximal change in viability relative to DMSO control); higher = less cytotoxic (negative = loss of viability). Particulars: 48 h.
Consider `N#Cc1ccc(NC(=O)Nc2ccccc2Br)c2nn[nH]c12`, for which the efficacy was -26%.

As for `CC(C)(C(=O)NCC(F)(F)C(F)(F)F)C(=O)N[C@@H]1C(=O)Nc2ccccc2-c2ccccc21`, the efficacy was -10.6%.

Regarding `CC(C)(C)C(=O)Oc1ccc2c(c1)nc(NC(=O)c1cccc([N+](=O)[O-])c1)n2CCCO`, the efficacy is -19.1%.

On to `CC(C)(O)c1coc([S+](=O)([O-])NC(=O)Nc2c3c(cc4c2CCC4)CCC3)c1`, for which the efficacy was found to be 7.83%.

Turning to `CC(C)c1c2cc(-c3ccnc(N[C@H]4CC[C@H](NC5CCOCC5)CC4)n3)ccc2nn1C`, the efficacy is -72.3%.

On to `CC(C)n1cc(-c2ccc3c(c2)N(C)CC3)c2c(N[S+](=O)([O-])c3ccn(C)n3)ccnc21`, for which the efficacy is -24.7%.

For the compound `Cc1noc(-c2ccc(CSCCC(=O)O)cc2)c1NC(=O)OC(C)c1ccccc1Cl` (configuration not stated), the efficacy was -36.3%.

Consider `Cc1cnc(-c2cc(N3CCN(C(=O)CC[S+](C)(=O)[O-])CC3)ncc2Cl)c(C)c1`, for which the efficacy is -93.8%.

Turning to `Cc1cc(SCc2sc(-c3ccc(C(F)(F)F)cc3)nc2C)ccc1OCC(=O)O`, the efficacy was -13.6%.

On to `Cc1cc2c(cc1C1(c3ccc(C(=O)O)cn3)CC1)C(C)(C)CCC2(C)C`, for which the efficacy is -25.8%.

With `CC1=CC=CC=C1N2\C(=N/C3=C(C(=CC=C3)C)C2=O)C[N]4C=NC5=C4N=CN=C5N`, the efficacy is -13.6%.

`Cc1n[nH]c2ncc(C(=O)N3CCC[C@H]3c3ccc(Cl)cc3)cc12`: the efficacy is -17.4%.

`CC1COC2(CCN(CC2)C/3=N/C(=O)C4=CC(=CC(=C4S3)[N+]([O-])=O)C(F)(F)F)O1` (configuration not stated): the efficacy is -19.7%.

As for `CCC(C)N(C)C(=O)c1cc2ccccc2c(-c2ccccc2Cl)n1` (configuration not stated), the efficacy was -46.4%.

In the case of `CCc1ccc(/C=C2/SC(=S)NC2=O)cc1`, the efficacy was -29%.

Take `CCOC(=O)C(C)OC1=CC=CC2=C1\C=C/N(CC(=O)NC3=CC=C4OCCOC4=C3)C2=O` (configuration not stated): the efficacy is -19.6%.

Turning to `CCn1c(C(=O)N(C2CC2)C2CC2)cc2c3c(ncn3C)c(Nc3cc(C)n(C)n3)nc21`, the efficacy is -25.7%.

Regarding `CN(C)C(=O)[C@H](O)[C@H](Cc1ccccc1)NC(=O)c1cc2cc(Cl)ccc2[nH]1`, the efficacy was -14.2%.

In the case of `CN(C)CCNC(=O)NC[C@H]1CC[C@@H]2[C@H](O1)c1cc(C(F)(F)F)ccc1N[C@H]2c1ccccc1`, the efficacy was -63.4%.

With `Cc1cn2cc(C(=O)N(C)CCO)cc(N[C@@H]3CCOc4cccc(C)c43)c2n1`, the efficacy is -27.6%.

`CN(CCOc1ccc(-c2ccc3c(c2)OCO3)cc1C(C)(C)C)CC(=O)O`: the efficacy was -58.3%.

`CN1C(=O)N(c2cc(Cl)cc(Cl)c2)C(=O)[C@]12CN(Cc1cc(C(=O)O)cs1)C[C@H]2c1ccc(C#N)cc1`: the efficacy was -6.34%.

As to `CN1CCN(CC1)C\2=C\3/C=C(/C)SC3=N/C4=CC=CC=C4N2`, the efficacy is -17.1%.

Take `CN1CCN(CCCNc2ncc(Cl)c(-c3cc4c(C(=O)NC5CC5)cccc4s3)n2)CC1`: the efficacy is -28.8%.

Consider `COc1cc(NC(=O)c2ccc(-c3ccc(Cl)cc3)o2)cc(OC)c1`, for which the efficacy was -43.9%.

With `COc1ccc([S+](=O)([O-])NCc2ccc(C(=O)NCCc3ccc(Cl)cn3)cc2)cc1`, the efficacy was -62.6%.

With `COc1ccc(Cc2ccc(NC(N)=O)cc2)cc1-c1cccc(Cl)c1`, the efficacy was -74.8%.

Regarding `COc1ccc(CCC(=O)Nc2nc3ccc(Cl)cc3s2)cc1OC`, the efficacy is -14.1%.

For `COc1ccc(COc2cc3oc(=O)c4cc(C(C)O)ccc4c3cc2OC)cc1` (configuration not stated), the efficacy was -22%.

For the compound `C=C[C@H]1CN2CC[C@H]1C[C@H]2[C@H](O)c1ccnc2ccc(OC)cc12`, the efficacy is -34.1%.

On to `COc1nccc(-c2c(-c3ccc(F)cc3)ncn2C2CCC(O)CC2)n1` (configuration not stated), for which the efficacy was -34.5%.

As for `COc1nccc(-c2c(-c3ccc(F)cc3)ncn2C2CCNCC2)n1`, the efficacy is -39.7%.

`COC[C@@H](c1ccc(C(F)(F)F)cc1)N1CCN(C2(C)CCN(C(=O)c3c(C)ncnc3C)CC2)C[C@@H]1C`: the efficacy was -15.4%.

Take `CONC(=O)c1ccccc1Nc1cc(Nc2cc(C)nn2C(C)C)ncc1Cl`: the efficacy was -40.7%.

In the case of `Cc1noc(-c2ccc(-c3ccc(C4(C(=O)O)CC4)cc3)cc2)c1NC(=O)O[C@H](C)c1ccccc1`, the efficacy was -40.6%.

On to `C[C@H](NC(=O)Cc1cc(F)cc(F)c1)C(=O)N[C@@H]1C(=O)N(C)c2ccccc2-c2ccccc21`, for which the efficacy was -23.7%.

Consider `C[C@](Cc1c[nH]c2ccccc12)(NC(=O)OC1C2CC3CC(C2)CC1C3)C(=O)NC[C@H](NC(=O)CCC(=O)O)c1ccccc1` (some centres not stated), for which the efficacy worked out at 9.82%.

In the case of `C[C@@]1(C(=O)Nc2ccc(F)nc2)CCCN1c1nc(Nc2cc(C3CC3)[nH]n2)c2cccn2n1`, the efficacy is -59.3%.

Turning to `Cn1cc(/C=C2\C(=O)Nc3cccnc32)c2ccccc21`, the efficacy is -35.8%.

In the case of `Cn1cc(-c2ccc3c(c2)CCN3C(=O)Cc2cccc(C(F)(F)F)c2)c2c(N)ncnc21`, the efficacy is -17.9%.

For `Cn1cc(-c2ccc(-c3cncc(Cl)c3N3CCC4(CCNC4=O)CC3)cc2)cn1`, the efficacy is -49.2%.

`Cn1cc(-c2c[nH]c3ncnc(N4CCOCC4)c23)cn1`: the efficacy was -31.9%.

On to `Cn1ccc2cc3c(cc21)CCN3C(=O)Nc1cccnc1`, for which the efficacy was -22.8%.

In the case of `O=C(N[C@H]1CN2CCC1CC2)c1ccc(Cl)cc1`, the efficacy was -55.8%.

As for `O=C(Nc1ccc2c(c1)CCN(Cc1ncn[nH]1)C2)c1ccccc1-c1ccc(C(F)(F)F)cc1`, the efficacy amounted to 17.5%.

On to `O=C1NC(=O)/C(=C\c2ccc(-c3ccc(F)cc3)o2)S1`, for which the efficacy was -23.2%.

For the compound `O=C(Nc1cccnc1)c1cc(-c2ccnc(F)c2)ccc1OCc1ccccc1`, the efficacy is -24.6%.

`N#CN1CCC[C@@H](n2nc(-c3ccc(Oc4ccc(F)cc4F)cc3)c(C(N)=O)c2N)C1`: the efficacy was -38.1%.

Turning to `NC(=O)c1cccc(N)c1`, the efficacy was -10.2%.

For the compound `Nc1ncnc2c1C(=O)N(c1ccc([C@H]3CC[C@H](CC(=O)O)CC3)cc1)CCO2`, the efficacy was -5.95%.

On to `Nc1nc(OC(c2ccc(-c3cccc(F)c3)cc2)C(F)(F)F)cc(-c2ccc(C[C@H](N)C(=O)O)cc2)n1` (some centres not stated), for which the efficacy is -21.2%.

Consider `O=C(NC1CCOCC1)c1ccc(-c2cc(-c3c[nH]nc3-c3ccccn3)ccn2)cc1`, for which the efficacy is -24%.

For the compound `O=C1NC(=O)/C(=C/c2ccc3nccnc3c2)S1`, the efficacy was -27.3%.

On to `O=C1\C=C(/OC2=C1C=CC=C2C3=CC=CC=C3)N4CCOCC4`, for which the efficacy is -24.3%.

With `O=C(O)/C(S)=C/c1ccc(I)cc1`, the efficacy is -6.45%.

As for `O=[S+]([O-])(O)c1ccc2cc(/N=N/c3cc([S+](=O)([O-])O)c4cccnc4c3O)ccc2c1`, the efficacy is -23.5%.

With `O=C1Cc2cc(C(=O)NC3C[C@H]4CC[C@@H](C3)N4[S+](=O)([O-])CC3CCN(CCCC(F)(F)F)CC3)c(Cl)cc2N1` (some centres not stated), the efficacy was -9.6%.

The values above are taken from the supplement of paper PMC10290057.
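Note: Luminescence-based viability readout, five doses per compound, normalized against on-plate DMSO and empty-well controls, followed by dose-response curve fitting for every drug.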
